Values belong to the compound of their own block, whether it stands above or below them.
Key:
[1] = biological target: T1, K928A/D1069A double mutant TRPM2 channel (Homo sapiens, UniProt O94759, D1069A/K928A); test: Whole-cell patch-clamp recording, K928A/D1069A double mutant in HEK293T cells; type: cell-based; details: intracellular ADPR 500 μM
T1 construct: expressed in transfected cells; host or cells: HEK293T cells, Lipofectamine 3000, GFP cDNA co-transfected as a separate marker
Experimental: (§1) 3. Cell culture and transfection: Human embryonic kidney 293 (HEK293) cells with tetracycline-inducible expression of human TRPM2 channel (hTRPM2) were cultured in a mixed medium containing DMEM/F-12 and 10% fetal bovine serum as well as blasticidin (50 μg/ml) and zeocin (0.4 mg/ml). The expression of hTRPM2 was induced by substituting […] (1 μg/ml) 24-48 hours before use. TRPM2 channel mutants were transiently expressed in HEK293T cells by transfection with using Lipofectamine 3000. Briefly, HEK293T cells were transiently transfected with cDNAs encoding the mutant hTRPM2 channel. The cDNA for GFP was co-transfected as a marker for identification of the transfected cells for electrophysiological experiments 16-24 hours after transfection. […]
4. Whole-cell and ingle-channel patch-clamp recording: the coverslips were placed in a culture dish (35×35 mm, Sorfa) containing HEPES based extracellular solution (ECS) and recorded by patch-clamp technique. […] Each coverslip was recorded only once with different drug exposures. […] The excised patches were voltage-clamped from −80 mV to +80 mV (in 20 mV increasement) to generate the current-voltage (I-V) relationship of single channel currents from which their main conductance was calculated from the slope by linear regression of the mean current amplitude at different potentials. […]

[2] = biological target: T2, human TRPM2 channel (hTRPM2) (Homo sapiens, UniProt O94759); test: Single-channel (outside-out) patch-clamp recording, HEK-hTRPM2 cells; type: cell-based; details: FFA applied after bilirubin
T2 construct: expressed in transfected cells; host or cells: HEK293 cells with tetracycline-inducible expression
T2 sequence (O94759 whole entry): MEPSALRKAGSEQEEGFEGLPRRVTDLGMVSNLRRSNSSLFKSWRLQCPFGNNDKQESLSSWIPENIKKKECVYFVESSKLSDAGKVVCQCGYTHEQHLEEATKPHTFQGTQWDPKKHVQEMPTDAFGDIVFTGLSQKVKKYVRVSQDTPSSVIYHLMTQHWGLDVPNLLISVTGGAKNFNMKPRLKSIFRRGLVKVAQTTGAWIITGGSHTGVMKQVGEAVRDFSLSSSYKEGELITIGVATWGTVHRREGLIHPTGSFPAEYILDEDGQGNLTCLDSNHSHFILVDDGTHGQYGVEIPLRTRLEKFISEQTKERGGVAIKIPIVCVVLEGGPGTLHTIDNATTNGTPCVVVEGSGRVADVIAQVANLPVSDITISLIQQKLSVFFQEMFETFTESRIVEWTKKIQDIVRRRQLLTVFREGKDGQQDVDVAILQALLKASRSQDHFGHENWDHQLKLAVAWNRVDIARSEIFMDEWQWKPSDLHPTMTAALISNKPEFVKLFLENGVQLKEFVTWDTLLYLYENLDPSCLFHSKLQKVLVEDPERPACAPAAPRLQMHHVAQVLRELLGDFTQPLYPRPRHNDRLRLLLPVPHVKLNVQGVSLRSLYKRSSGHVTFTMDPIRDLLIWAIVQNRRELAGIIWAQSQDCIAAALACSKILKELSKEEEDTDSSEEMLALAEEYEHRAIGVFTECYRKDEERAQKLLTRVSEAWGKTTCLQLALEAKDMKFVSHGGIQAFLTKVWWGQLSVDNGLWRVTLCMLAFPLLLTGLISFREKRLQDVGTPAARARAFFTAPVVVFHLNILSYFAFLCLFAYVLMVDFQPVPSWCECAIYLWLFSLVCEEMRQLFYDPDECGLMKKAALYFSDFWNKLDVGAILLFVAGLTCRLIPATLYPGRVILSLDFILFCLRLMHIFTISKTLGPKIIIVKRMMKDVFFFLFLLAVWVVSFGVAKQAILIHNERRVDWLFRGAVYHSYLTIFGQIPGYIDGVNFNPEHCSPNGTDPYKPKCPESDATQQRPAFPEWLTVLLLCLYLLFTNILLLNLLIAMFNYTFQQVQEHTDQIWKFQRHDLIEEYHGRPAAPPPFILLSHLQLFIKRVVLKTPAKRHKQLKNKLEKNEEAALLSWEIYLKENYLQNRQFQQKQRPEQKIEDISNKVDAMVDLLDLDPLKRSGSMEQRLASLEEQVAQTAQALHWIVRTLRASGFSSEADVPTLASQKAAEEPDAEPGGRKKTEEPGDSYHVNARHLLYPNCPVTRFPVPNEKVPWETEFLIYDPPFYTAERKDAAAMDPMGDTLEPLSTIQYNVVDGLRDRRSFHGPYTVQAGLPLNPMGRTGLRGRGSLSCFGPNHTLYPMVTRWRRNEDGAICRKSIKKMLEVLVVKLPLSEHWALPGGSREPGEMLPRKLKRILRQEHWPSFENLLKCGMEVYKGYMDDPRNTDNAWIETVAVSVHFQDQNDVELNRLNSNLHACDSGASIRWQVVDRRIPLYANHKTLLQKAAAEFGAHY
Experimental: 1. Extracellular solution (in mM): 145 NaCl, 5.6 KCl, 2 MgCl2, 1.2 CaCl2, 10 HEPES, 10 glucose and pH adjusted to 7.4 by NaOH (290-320 mOsm).
2. Pipette solution contains (in mM): 147 NaCl, 1 MgCl2, 1 EGTA and 10 HEPES with pH 7.4 and osmolality 290-320 mOsm.
as §1, with “3000.” for “3000. Briefly, HEK293T cells were transiently transfected with cDNAs encoding the mutant hTRPM2 channel. The cDNA for GFP was co-transfected as a marker for identification of the transfected cells for electrophysiological experiments 16-24 hours after transfection.”
4. Whole-cell and ingle-channel patch-clamp recording: the coverslips were placed in a culture dish (35×35 mm, Sorfa) containing HEPES based extracellular solution (ECS) and recorded by patch-clamp technique. […] Each coverslip was recorded only once with different drug exposures. […] The excised patches were voltage-clamped from −80 mV to +80 mV (in 20 mV increasement) to generate the current-voltage (I-V) relationship of single channel currents from which their main conductance was calculated from the slope by linear regression of the mean current amplitude at different potentials.

[3] = tested on: cortical neurons in adult Trpm2+/+ brain slices; details: mouse, 1 h

T1 sequence (O94759 whole entry K928A/D1069A): as the sequence (O94759 whole entry) above, with K928A, D1069A counted along it

activation of K928A/D1069A double mutant currents [1]: perfectly retained the agonist capacity
SMILES: Nc1ncnc2c1ncn2[C@@H]1O[C@H](COP(=O)(O)OP(=O)(O)OC[C@H]2OC(O)[C@H](O)[C@@H]2O)[C@@H](O)[C@H]1O (stereo partly drawn) [ADPR, ADP-ribose]

effect on bilirubin-increased opening probability (Po) [2]: reversed
SMILES: O=C(O)c1ccccc1Nc1cccc(C(F)(F)F)c1 [FFA, flufenamic acid]

SMILES: C=CC1=C(C)/C(=C/c2[nH]c(Cc3[nH]c(/C=C4\NC(=O)C(C)=C4C=C)c(C)c3CCC(=O)O)c(CCC(=O)O)c2C)NC1=O [bilirubin]
mortality of cortical neurons [3]: 60.84±2.13%
